Laboratory results from patent US7786299B2, “Methods for treating diseases or conditions using dihydropteridinone compounds” (Boehringer Ingelheim Pharma GmbH & Co. KG, priority 2003, dated 2010).

What was measured:
HeLaS3 cells = test: Measurement of cytotoxicity on cultivated human tumour cells (AlamarBlue); format: cell-based; settings: HeLa in Table 1; unit inferred
Procedure: The activity of the compounds according to the invention was determined in the cytotoxicity test on cultivated human tumour cells and/or in a FACS analysis, for example on HeLaS3 cells.
Measurement of Cytotoxicity on Cultivated Human Tumour Cells
To measure the cytotoxicity on cultivated human tumour cells, cells of the cervical cancer tumour cell line HeLaS3 (obtained from American Type Culture Collection (ATCC)) in Ham's F12 Medium (Life Technologies) and 10% foetal calf serum (Life Technologies) were cultivated and harvested in the logarithmic growth phase. Then the HeLaS3 cells were placed in 96-well plates (Costar) at a density of 1000 cells per well and incubated overnight in an incubator (at 37° C. and 5% CO2), while on each plate 6 wells were filled only with medium (3 wells as a control of the medium, 3 wells for incubation with reduced AlamarBlue). The active substances were added to the cells in various concentrations (dissolved in DMSO; final concentration: 1%) (in each case as a triple measurement). After 72 hours' incubation, 20 μl of AlamarBlue (AccuMed International) were added to each well, and the cells were incubated for a further 7 hours. As a control, 20 μl of reduced Alamar Blue (AlamarBlue reagent which had been autoclaved for 30 min) were added to 3 wells. After 7 h incubation the colour change of the AlamarBlue reagent in the individual wells was determined in a Perkin Elmer fluorescence spectrophotometer (excitation 530 nm, emission 590 nm, slits 15, integrate time 0.1). The amount of AlamarBlue reagent reacted represents the metabolic activity of the cells. The relative cell activity was calculated as a percentage of the control (HeLa S3 cells without inhibitor) and the active substance concentration which inhibits the cell activity by 50% (IC^50) was obtained. The values were calculated from the average of three individual measurements, correcting for the control value (medium control).

H460-VINC = test: Cytotoxicity on H460-VINC cells (Table 1; method not given); format: cell-based; settings: H460-VINC of Table 1; unit inferred

Compound | IC50 (HeLaS3 cells) [nM] | IC50 (H460-VINC) [nM]
CCC1C(=O)N(C)c2cnc(Nc3ccc(C(=O)NC4CCC(N5CCCC5)CC4)cc3OC)nc2N1C1CCCC1 (centres unmarked) [Example 138] | 43 | 1140
CC1C(=O)N(C)c2cnc(Nc3ccc(C(=O)NC4CCC(N(C)C)CC4)cc3)nc2N1C1CCCC1 (centres unmarked) [Example 14] | 55 | ≥ 3000
CCC1C(=O)N(C)c2cnc(Nc3ccc(C(=O)NC4CCC(N5CCOCC5)CC4)cc3OC)nc2N1C1CCCC1 (centres unmarked) [Example 133] | 11 | 75
CC[C@@H]1C(=O)N(C)c2cnc(Nc3ccc(C(=O)NCC(C)(C)CN(C)C)cc3OC)nc2N1c1ccccc1 [Example 89] | 47 | 245
CCC1C(=O)N(C)c2cnc(Nc3ccc(C(=O)NC4CCC(N5CCOCC5)CC4)cc3OC)nc2N1C(C)C (centres unmarked) [Example 27] | 14 | 164
COc1cc(C(=O)NCCN2CCCCC2)ccc1Nc1ncc2c(n1)N(C1CCCC1)C(C)C(=O)N2C (centres unmarked) [Example 66] | 64 | 250
COc1cc(C(=O)NC(C)(C)CN2CCCC2)ccc1Nc1ncc2c(n1)N(C(C)C)C(C)C(=O)N2C (centres unmarked) [Example 56] | 64 | 324
CCN1CCC(NC(=O)c2ccc(Nc3ncc4c(n3)N(C3CCCC3)C(C)C(=O)N4C)cc2)CC1 (centres unmarked) [Example 18] | 40 | 1760
COc1cc(C(=O)NC2CCC(N3CCCCC3)CC2)ccc1Nc1ncc2c(n1)N(C1CCCC1)C(C)C(=O)N2C (centres unmarked) [Example 16] | 17 | 483
CCC1C(=O)N(C)c2cnc(Nc3ccc(C(=O)NC4CCC(N5CCOCC5)CC4)cc3OC)nc2N1C1CCCC1 (centres unmarked) [Example 131] | 23 | 101
COc1cc(C(=O)NC2CCC(N3CCOCC3)CC2)ccc1Nc1ncc2c(n1)N(C1CCCC1)C(C)C(=O)N2C (centres unmarked) [Example 24] | 17 | 277
CCN1CCC(NC(=O)c2ccc(Nc3ncc4c(n3)N(CC(C)(C)C)C(C)C(=O)N4C)cc2)CC1 (centres unmarked) [Example 11] | 86 | 1300
COc1cc(C(=O)NC2CC3CCC(C2)N3C)ccc1Nc1ncc2c(n1)N(CCC(C)C)C(C)(C)C(=O)N2C (centres unmarked) [Example 43] | 94 | ≥ 3000
COc1cc(C(=O)NC2CCN(C(C)C)CC2)ccc1Nc1ncc2c(n1)N(CCC(C)C)C(C)C(=O)N2C (centres unmarked) [Example 2] | 56 | 971
COc1cc(C(=O)NCC(C)(C)CN(C)C)ccc1Nc1ncc2c(n1)N(C1CCCC1)C(C1CC1)C(=O)N2C (centres unmarked) [Example 51] | 80 | 150
CCC1C(=O)N(C)c2cnc(Nc3ccc(C(=O)NC4CCCN(C)CC4)cc3OC)nc2N1CCC(C)C (mixture of isomers) [Example 172] | 20 | 772

Compound | IC50 (HeLaS3 cells) [nM] | IC50 (H460-VINC) [nM]
CCC1C(=O)N(C)c2cnc(Nc3ccc(C(=O)NC4CCC(N5CCCCC5)CC4)cc3OC)nc2N1C(C)C (centres unmarked) [Example 129] | 35 | 646
COc1cc(C(=O)NC2CCC(N3CCN(CC4CC4)CC3)CC2)ccc1Nc1ncc2c(n1)N(C(C)C)C(C)C(=O)N2C (centres unmarked) [Example 112] | 75 | 345
CCC1C(=O)N(C)c2cnc(Nc3ccc(C(=O)NC4CCN(C)CC4)cc3)nc2N1C1CCCC1 (centres unmarked) [Example 44] | 9 | 204
COc1cc(C(=O)NCCCN(C)C)ccc1Nc1ncc2c(n1)N(C1CCCC1)[C@H](C)C(=O)N2C [Example 75] | 46 | 557
COc1cc(C(=O)N[C@H]2CC[C@H](N3CCOCC3)CC2)ccc1Nc1ncc2c(n1)N(CCC(C)C)[C@H](C)C(=O)N2C [Example 38] | 87 | 278
CC[C@@H]1C(=O)N(C)c2cnc(Nc3ccc(C(=O)NCCCCN(CC)CC)cc3OC)nc2N1CCC(C)C [Example 153] | 72 | 2640
COc1cc(C(=O)NC(C)(C)CN2CCCC2)ccc1Nc1ncc2c(n1)N(C1CCCCC1)[C@H](C)C(=O)N2C [Example 87] | 29 | 66
COc1cc(C(=O)NC2CCC(N(C)C)CC2)ccc1Nc1ncc2c(n1)N(CCC(C)C)C(C)C(=O)N2C (centres unmarked) [Example 114] | 64 | 766
CCC1C(=O)N(C)c2cnc(Nc3ccc(C(=O)NCC(C)(C)CN(C)C)cc3OC)nc2N1C(C)C (centres unmarked) [Example 57] | 38 | 67
COc1cc(C(=O)NC(C)(C)CN2CCCC2)ccc1Nc1ncc2c(n1)N(C1CCCC1)C(C)C(=O)N2C (centres unmarked) [Example 49] | 59 | 529
CC[C@@H]1C(=O)N(C)c2cnc(Nc3ccc(C(=O)NCCC4CCCN4C)cc3OC)nc2N1CCC(C)C (some centres unmarked) [Example 167] | 34 | 817
COc1cc(C(=O)NCCN2CCOCC2)ccc1Nc1ncc2c(n1)N(C1CCCC1)C(C)C(=O)N2C (centres unmarked) [Example 65] | 52 | 216
CC[C@@H]1C(=O)N(C)c2cnc(Nc3ccc(C(=O)NCCN(C(C)C)C(C)C)cc3OC)nc2N1CCC(C)C [Example 160] | 37 | 728
COc1cc(C(=O)NC2CCC(N3CCOCC3)CC2)ccc1Nc1ncc2c(n1)N(C(C)C)C(C)C(=O)N2C (centres unmarked) [Example 26] | 59 | 424
COc1cc(C(=O)NC2CCC(N(C)C)CC2)ccc1Nc1ncc2c(n1)N(C1CCCCC1)C(C)C(=O)N2C (centres unmarked) [Example 118] | 10 | 279
